Reference: patent US7132504B2, “Hepatitis C virus inhibitors” (Bristol-Myers Squibb Company, priority 2003, dated 2006)

Target: T1, porcine pancreatic elastase (PPE) (Sus scrofa, UniProt P00772)
T1 construct: purchased Sigma
Experiment: Specificity assay, porcine pancreatic elastase
Assay type: biochemical
Details: 2 h enzyme-inhibitor pre-incubation
Description: The specificities of compounds of the present invention were determined against a variety of serine proteases: human neutrophil elastase (HNE), porcine pancreatic elastase (PPE) and human pancreatic chymotrypsin and one cysteine protease: human liver cathepsin B. In all cases a 96-well plate format protocol using colorimetric p-nitroaniline (pNA) substrate specific for each enzyme was used as described previously (PCT Patent Application No. WO 00/09543) with some modifications to the serine protease assays. All enzymes were purchased from Sigma while the substrates were from Bachem.
Each assay included a 2 h enzyme-inhibitor pre-incubation at room temperature followed by addition of substrate and hydrolysis to ˜30% conversion as measured on a Spectramax Pro microplate reader. Compound concentrations varied from 100 to 0.4 μM depending on their potency. […]
The percentage of inhibition was calculated using the formula: [1−((UVinh−UVblank)/(UVctl−UVblank))]×100 […]

T1 sequence (P00772 27-266): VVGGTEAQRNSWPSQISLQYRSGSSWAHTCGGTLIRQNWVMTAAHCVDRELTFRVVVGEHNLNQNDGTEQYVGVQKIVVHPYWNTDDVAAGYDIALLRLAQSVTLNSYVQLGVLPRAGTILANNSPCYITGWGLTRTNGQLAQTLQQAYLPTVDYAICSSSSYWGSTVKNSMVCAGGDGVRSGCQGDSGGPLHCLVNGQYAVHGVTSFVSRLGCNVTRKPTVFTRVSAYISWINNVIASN

C=CC1C[C@]1(NC(=O)[C@@H]1C[C@@H](Oc2cc(-c3ccccc3)nc3cc(OC)ccc23)CN1C(=O)[C@@H](NC(=O)OC)C(C)(C)C)C(=O)NS(=O)(=O)N(C)Cc1ccccc1 (stereo partly shown) [Compound 9]
IC50: > 200 µM
